Assay results as given in PubChem BioAssay (NCI).
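Values below derive from 48-hour exposures of cells grown in 96-well plates, with endpoints linearly interpolated between the two concentrations bracketing the appropriate inhibition level. At the GI50, growth is halved. The concentration for full growth arrest is given as TGI.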

What was measured:
Assay in all cases: growth of human tumour cells (NCI), 48 h
786-0 renal = system: 786-0 renal
A498 renal = system: A498 renal
A549 NSCLC = system: A549 NSCLC
ACHN renal = system: ACHN renal
BT-549 breast = system: BT-549 breast
CAKI-1 renal = system: CAKI-1 renal
CCRF-CEM leukemia = system: CCRF-CEM leukemia
COLO 205 colon = system: COLO 205 colon
DU-145 prostate = system: DU-145 prostate
EKVX NSCLC = system: EKVX NSCLC
HCC-2998 colon = system: HCC-2998 colon
HCT-116 colon = system: HCT-116 colon
HCT-15 colon = system: HCT-15 colon
HL-60(TB) leukemia = system: HL-60(TB) leukemia
HOP-62 NSCLC = system: HOP-62 NSCLC
HOP-92 NSCLC = system: HOP-92 NSCLC
HS 578T breast = system: HS 578T breast
HT29 colon = system: HT29 colon
IGROV1 ovarian = system: IGROV1 ovarian
K-562 leukemia = system: K-562 leukemia
KM12 colon = system: KM12 colon
LOX IMVI melanoma = system: LOX IMVI melanoma
M14 melanoma = system: M14 melanoma
MALME-3M melanoma = system: MALME-3M melanoma
MCF7 breast = system: MCF7 breast
MDA-MB-231 breast = system: MDA-MB-231 breast
MDA-MB-435 = system: MDA-MB-435
MOLT-4 leukemia = system: MOLT-4 leukemia
NCI-H226 lung = system: NCI-H226 lung
NCI-H23 lung = system: NCI-H23 lung
NCI-H460 lung = system: NCI-H460 lung
NCI-H522 lung = system: NCI-H522 lung
NCI/ADR-RES ovarian = system: NCI/ADR-RES ovarian
OVCAR-3 ovarian = system: OVCAR-3 ovarian
OVCAR-4 ovarian = system: OVCAR-4 ovarian
OVCAR-5 ovarian = system: OVCAR-5 ovarian
OVCAR-8 ovarian = system: OVCAR-8 ovarian
PC-3 prostate = system: PC-3 prostate
RPMI-8226 leukemia = system: RPMI-8226 leukemia
RXF 393 renal = system: RXF 393 renal
SF-268 CNS = system: SF-268 CNS
SF-295 CNS = system: SF-295 CNS
SF-539 CNS = system: SF-539 CNS
SK-MEL-2 melanoma = system: SK-MEL-2 melanoma
SK-MEL-28 melanoma = system: SK-MEL-28 melanoma
SK-MEL-5 melanoma = system: SK-MEL-5 melanoma
SK-OV-3 ovarian = system: SK-OV-3 ovarian
SN12C renal = system: SN12C renal
SNB-19 CNS = system: SNB-19 CNS
SNB-75 CNS = system: SNB-75 CNS
SR leukemia = system: SR leukemia
SW-620 colon = system: SW-620 colon
T-47D breast = system: T-47D breast
TK-10 renal = system: TK-10 renal
U251 CNS = system: U251 CNS
UACC-257 melanoma = system: UACC-257 melanoma
UACC-62 melanoma = system: UACC-62 melanoma
UO-31 renal = system: UO-31 renal

## CCC(=O)c1c(C(F)(F)F)n([O-])c2cc(F)c(F)cc2[n+]1=O
786-0 renal
  GI50: 1330 nM
  TGI: 2710 nM
A498 renal
  GI50: 1740 nM
  TGI: 4920 nM
A549 NSCLC
  GI50: 2430 nM
  TGI: 6720 nM
ACHN renal
  GI50: 1250 nM
  TGI: 2660 nM
BT-549 breast
  GI50: 1520 nM
  TGI: 3050 nM
CAKI-1 renal
  GI50: 329 nM
  TGI: 1030 nM
CCRF-CEM leukemia
  GI50: 108 nM
  TGI: 555 nM
COLO 205 colon
  GI50: 466 nM
  TGI: 3160 nM
DU-145 prostate
  GI50: 832 nM
  TGI: 2330 nM
EKVX NSCLC
  GI50: 2190 nM
  TGI: 4910 nM
HCC-2998 colon
  GI50: 1450 nM
  TGI: 2900 nM
HCT-116 colon
  GI50: 366 nM
  TGI: 1510 nM
HCT-15 colon
  GI50: 1910 nM
  TGI: > 100000 nM
HL-60(TB) leukemia
  GI50: 638 nM
  TGI: 6550 nM
HOP-62 NSCLC
  GI50: 1440 nM
  TGI: 2810 nM
HOP-92 NSCLC
  GI50: 762 nM
  TGI: 2190 nM
HS 578T breast
  GI50: 1790 nM
  TGI: 5820 nM
HT29 colon
  GI50: 228 nM
  TGI: 492 nM
IGROV1 ovarian
  GI50: 520 nM
  TGI: 1490 nM
K-562 leukemia
  GI50: 154 nM
  TGI: > 100000 nM
KM12 colon
  GI50: 1510 nM
  TGI: 3130 nM
LOX IMVI melanoma
  GI50: 28.4 nM
  TGI: 221 nM
M14 melanoma
  GI50: 308 nM
  TGI: 951 nM
MALME-3M melanoma
  GI50: 845 nM
  TGI: 2240 nM
MCF7 breast
  GI50: 623 nM
MDA-MB-231 breast
  GI50: 594 nM
  TGI: 1490 nM
MDA-MB-435
  GI50: 159 nM
  TGI: 605 nM
MOLT-4 leukemia
  GI50: 196 nM
  TGI: > 100000 nM
NCI-H226 lung
  GI50: 502 nM
  TGI: 991 nM
NCI-H23 lung
  GI50: 807 nM
  TGI: 2240 nM
NCI-H460 lung
  GI50: 1760 nM
  TGI: 4890 nM
NCI-H522 lung
  GI50: 615 nM
  TGI: 2690 nM
NCI/ADR-RES ovarian
  GI50: 822 nM
  TGI: 2350 nM
OVCAR-3 ovarian
  GI50: 296 nM
  TGI: 836 nM
OVCAR-4 ovarian
  GI50: 1830 nM
  TGI: 4100 nM
OVCAR-5 ovarian
  GI50: 1320 nM
  TGI: 2750 nM
OVCAR-8 ovarian
  GI50: 632 nM
  TGI: 1590 nM
PC-3 prostate
  GI50: 1540 nM
  TGI: 3060 nM
RPMI-8226 leukemia
  GI50: 394 nM
  TGI: 1600 nM
RXF 393 renal
  GI50: 1370 nM
  TGI: 3250 nM
SF-268 CNS
  GI50: 1400 nM
  TGI: 3210 nM
SF-295 CNS
  GI50: 370 nM
  TGI: 1670 nM
SF-539 CNS
  GI50: 1540 nM
  TGI: 3180 nM
SK-MEL-2 melanoma
  GI50: 663 nM
  TGI: > 20000 nM
SK-MEL-28 melanoma
  GI50: 1320 nM
  TGI: 2990 nM
SK-MEL-5 melanoma
  GI50: 1270 nM
  TGI: 2740 nM
SK-OV-3 ovarian
  GI50: 1860 nM
  TGI: 3880 nM
SN12C renal
  GI50: 649 nM
  TGI: 2070 nM
SNB-19 CNS
  GI50: 1350 nM
  TGI: 3910 nM
SNB-75 CNS
  GI50: 2580 nM
  TGI: 4440 nM
SR leukemia
  GI50: 60.7 nM
  TGI: 263 nM
SW-620 colon
  GI50: 460 nM
  TGI: 2210 nM
T-47D breast
  GI50: 570 nM
  TGI: 7040 nM
TK-10 renal
  GI50: 1050 nM
  TGI: 2390 nM
U251 CNS
  GI50: 1430 nM
  TGI: 3390 nM
UACC-257 melanoma
  GI50: 1500 nM
  TGI: 2980 nM
UACC-62 melanoma
  GI50: 571 nM
  TGI: 1330 nM
UO-31 renal
  GI50: 971 nM
  TGI: 3050 nM
